Measured values reported in patent US8846656B2, “Tetrahydropyrido-pyridine and tetrahydropyrido-pyrimidine compounds and use thereof as C5a receptor modulators” (Novartis AG, priority 2011, dated 2014).

Experiments:
human C5aR = human C5aR (Homo sapiens (Human), UniProt P21730); experiment: FLIPR assay: inhibition of C5a-mediated calcium mobilization; format: cell-based; conditions: stable cell line over expressing human C5aR & Gα15, human C5a at EC50 (0.1-0.25 nM)
Procedure: Compounds were tested for their ability to inhibit C5a-mediated calcium mobilization using a stable cell line over expressing the human C5aR & the Gα15 protein on the FLIPR (Fluorescent Imaging Plate Reader) Tetra system. Cells were maintained in culture media containing DMEM (Dulbecco's Modified Eagle Medium) with 4.5 g/L glucose, 10% fetal bovine serum, 100 U/mL, 1× non-essential amino acid, and 250 μg/mL G418 (Geneticin). Prior to testing of compounds, cells were plated at 10,000 cells/well in clear bottom 384-well black plate, and incubated overnight at 37° C. with 5% CO2. On the day of experiment, culture media was removed, and replaced with assay buffer HBSS (Hanks' Balanced Salt Solution) with 20 mM HEPES (4-(2-hydroxyethyl)-1-piperazineethanesulfonic acid) and 0.1% BSA (bovine serum albumin) BSA containing calcium 5 dye (Molecular Devices) and 2.5 mM probenecid. After 1 hour incubation at 37° C., 5% CO2 for 60 min, cells were pre-incubated with compounds for 30 minutes at room temperature, in 1% DMSO (dimethyl sulfoxide).

CD11b = experiment: Human whole blood CD11b up-regulation assay; format: cell-based; conditions: Homo sapiens, 2 nM human C5a, CD15+ granulocytes, read-out: hCD11b IC50
Procedure: Whole blood was collected in sodium heparin tubes and the assay started within 2 hours of the blood draw. The blood was incubated with compounds in 1% DMSO (dimethyl sulfoxide) at room temperature for 10 minutes with gentle rocking. 2 nM of human C5a was then added for 15 minutes at room temperature with gentle rocking. Following the C5a incubation period cells were washed once with cold FACS (fluorescence-activated cell sorting) buffer (phosphate buffered saline+0.5% bovine serum albumin) FITC (fluorescein isothiocyanate) mouse anti-human CD15 and PE-Cy5 (phycoerythrin-cyanine 5) mouse anti-human CD11b antibodies (Becton Dickinson) were gently mixed with the cells and allowed to incubate for 30 minutes on ice protected from the light. Cells were then washed three times with cold FACS buffer. Red blood cells (RBC) were lysed by incubating with BD FACS lysis buffer (Becton Dickinson) for 10 minutes at room temperature. Cells were pelleted and the lysing procedure was repeated until all RBCs were lysed. The remaining leukocytes were resuspended in BD lysis buffer. Samples were acquired on the LSR^11 flow cytometer and 10,000 events of the CD15+ granulocyte population were collected. The CD11b median fluorescence intensity of the CD 15+ cell population was evaluated using FACSDiva software (Becton Dickinson).

human C5aR, sequence (P21730 whole entry): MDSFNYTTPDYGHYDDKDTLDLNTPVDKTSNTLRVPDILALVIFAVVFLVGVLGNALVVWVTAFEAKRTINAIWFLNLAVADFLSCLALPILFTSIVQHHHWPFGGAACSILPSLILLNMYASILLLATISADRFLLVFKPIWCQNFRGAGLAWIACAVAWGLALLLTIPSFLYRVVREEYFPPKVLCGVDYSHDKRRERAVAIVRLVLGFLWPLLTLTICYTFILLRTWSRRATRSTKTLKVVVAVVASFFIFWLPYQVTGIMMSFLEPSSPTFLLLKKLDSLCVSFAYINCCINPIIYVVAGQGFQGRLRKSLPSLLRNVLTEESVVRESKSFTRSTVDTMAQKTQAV

| SMILES | IC50 (human C5aR) [nM] | IC50 (CD11b) [nM] |
| --- | --- | --- |
| CO[C@@H]1CCN(c2nc(-c3c(C(F)(F)F)cnc4[nH]ccc34)nc3c2CN(c2cc(C(C)C)ccc2C)CC3)[C@H](C)C1 [Example 22-C, 6-(5-Isopropyl-2-methylphenyl)-4-((2R,4R)-4-methoxy-2-methylpiperidin-1-yl)-2-(5-(trifluoromethyl)-1H-pyrrolo[2,3-b]pyridin-4-yl)-5,6,7,8-tetrahydropyrido[4,3-d]pyrimidine] | 2 | 17 |
| CO[C@@H]1CCN(c2nc(-c3c(C)cncc3C)nc3c2CN(c2cc(C(C)C)ccc2C)CC3)CC1(C)C [Example 21-M, (R)-2-(3,5-dimethylpyridin-4-yl)-6-(5-isopropyl-2-methylphenyl)-4-(4-methoxy-3,3-dimethylpiperidin-1-yl)-5,6,7,8-tetrahydropyrido[4,3-d]pyrimidine] | 56 | 181 |
| Cc1ccc(C(C)C)cc1N1CCc2nc(-c3cccc4[nH]cc(C)c34)nc(N3CCN(C4COC4)[C@H](C)C3)c2C1 [Example 30-A, (R)-6-(5-Isopropyl-2-methylphenyl)-2-(3-methyl-1H-indol-4-yl)-4-(3-methyl-4-(oxetan-3-yl)piperazin-1-yl)-5,6,7,8-tetrahydropyrido[4,3-d]pyrimidine] | 16 | 5780 |
| CO[C@@H]1CCN(c2nc(-c3c(C)cc(C)cc3C)nc3c2CN(c2cc(C(C)C)ccc2C)CC3)CC1(C)C [Example 21-AE, (R)-6-(5-isopropyl-2-methylphenyl)-2-mesityl-4-(4-methoxy-3,3-dimethylpiperidin-1-yl)-5,6,7,8-tetrahydropyrido[4,3-d]pyrimidine] | 9 | 93 |
| CO[C@H]1C[C@H]2CC[C@@H](C1)N2c1nc(-c2c(C)ccc3[nH]nc(C)c23)nc2c1CN(c1c(F)c(C3CC3)nn1C)CC2 [Example 56-B] | 2 | 45 |
| CO[C@H]1CCN(c2nc(-c3c(C)ccc4[nH]nc(C)c34)nc3c2CN(c2c(F)c(C4CC4)nn2C)CC3)CC1(C)C [Example 56-C, (S)-6-(3-cyclopropyl-4-fluoro-1-methyl-1H-pyrazol-5-yl)-2-(3,5-dimethyl-1H-indazol-4-yl)-4-(4-methoxy-3,3-dimethylpiperidin-1-yl)-5,6,7,8-tetrahydropyrido[4,3-d]pyrimidine] | 1 | 6 |
| CC(=O)N1CCN(c2nc(-c3cccc4[nH]cc(C)c34)nc3c2CN(c2cc(C4(C)COC4)ccc2C)CC3)[C@H](C)C1 [Example 26-B, (R)-1-(3-Methyl-4-(2-(3-methyl-1H-indol-4-yl)-6-(2-methyl-5-(3-methyloxetan-3-yl)phenyl)-5,6,7,8-tetrahydropyrido[4,3-d]pyrimidin-4-yl)piperazin-1-yl)ethanone] | 20 | 907 |
| CCn1nc(C2CC2)c(Cl)c1N1CCc2nc(-c3c(C)ccc4[nH]nc(C)c34)nc(N3CC(N(C)C)C3)c2C1 [Example 70-K, 1-(6-(4-chloro-3-cyclopropyl-1-ethyl-1H-pyrazol-5-yl)-2-(3,5-dimethyl-1H-indazol-4-yl)-5,6,7,8-tetrahydropyrido[4,3-d]pyrimidin-4-yl)-N,N-dimethylazetidin-3-amine] | 20 | 37 |
| CO[C@@H]1CCN(c2nc(-c3c(C)cccc3C)nc3c2CN(c2cc(C4(C)COC4)ccc2C)CC3)[C@H](C)C1 [Example 21-K, 2-(2,6-dimethylphenyl)-4-((2R,4R)-4-methoxy-2-methylpiperidin-1-yl)-6-(2-methyl-5-(3-methyloxetan-3-yl)phenyl)-5,6,7,8-tetrahydropyrido[4,3-d]pyrimidine] | 2 | 11 |
| CO[C@H]1CCN(c2nc(-c3cccc4[nH]cc(C)c34)nc3c2CN(c2cc(C(C)C)ccc2C)CC3)C[C@H]1C (racemic) [Example 17-AQ, racemic 6-(5-isopropyl-2-methylphenyl)-4-(4-methoxy-3-methylpiperidin-1-yl)-2-(3-methyl-1H-indol-4-yl)-5,6,7,8-tetrahydropyrido[4,3-d]pyrimidine] | 16 | 277 |
| CCn1nc(C2CC2)c(F)c1N1CCc2nc(-c3c(C)ccc4[nH]nc(C)c34)nc(N3CC[C@@H](OC)C(C)(C)C3)c2C1 [Example 71-B, (R)-6-(3-Cyclopropyl-1-ethyl-4-fluoro-1H-pyrazol-5-yl)-2-(3,5-dimethyl-1H-indazol-4-yl)-4-(4-methoxy-3,3-dimethylpiperidin-1-yl)-5,6,7,8-tetrahydropyrido[4,3-d]pyrimidine] | 2 | 10 |

Further molecules by falling IC50 (human C5aR), results first:

| IC50 (human C5aR) [nM] | IC50 (CD11b) [nM] | SMILES |
| --- | --- | --- |
| 38 | 188 | [2H]C1([2H])c2c(C)cc(-c3cccc4[nH]cc(C)c34)nc2CCN1c1c(C)cccc1C [Example 44-E, 6-(2,6-dimethylphenyl)-4-methyl-2-(3-methyl-1H-indol-4-yl)-5,6,7,8-(5,5-^2H2)tetrahydro-1,6-naphthyridine] |
| 31 | 423 | Cc1ccc(C(C)C)cc1N1CCc2nc(-c3cccc4[nH]cc(C)c34)nc(N3CC[C@H](O)[C@H](C)C3)c2C1 (racemic) [Example 17-AN, racemic-1-(6-(5-isopropyl-2-methylphenyl)-2-(3-methyl-1H-indol-4-yl)-5,6,7,8-tetrahydropyrido[4,3-d]pyrimidin-4-yl)-3-methylpiperidin-4-ol] |
| 10 | 42 | COC1CCN(c2nc(-c3cccc4[nH]cc(C)c34)nc3c2CN(c2cc(C(C)C)ccc2C)CC3)[C@H](C)C1 (stereo in doubt) [Example 17-R, 6-(5-isopropyl-2-methylphenyl)-4-((2R,4S)-4-methoxy-2-methylpiperidin-1-yl)-2-(3-methyl-1H-indol-4-yl)-5,6,7,8-tetrahydropyrido[4,3-d]pyrimidine] |
| 7 | 26 | CO[C@@H]1CCN(c2nc(-c3c(C)cccc3C)nc3c2CN(c2cc(Cl)ccc2C)CC3)[C@H](C)C1 [Example 21-P, 6-(5-chloro-2-methylphenyl)-2-(2,6-dimethylphenyl)-4-((2R,4R)-4-methoxy-2-methylpiperidin-1-yl)-5,6,7,8-tetrahydropyrido[4,3-d]pyrimidine] |
| 4 | 50 | CO[C@H]1CCN(c2nc(-c3c(C(C)C)ccc4[nH]ncc34)nc3c2CN(c2cc(C4(C)COC4)ccc2C)CC3)CC1(C)C [Example 19-AC, (S)-2-(5-isopropyl-1H-indazol-4-yl)-4-(4-methoxy-3,3-dimethylpiperidin-1-yl)-6-(2-methyl-5-(3-methyloxetan-3-yl)phenyl)-5,6,7,8-tetrahydropyrido[4,3-d]pyrimidine] |
| 4 | 56 | CO[C@H]1CN(c2nc(-c3c(C)ccc4[nH]nc(C)c34)nc3c2CN(c2cc(C(C)C)ccc2C)CC3)C[C@@H]1N(C)C (single isomer, unassigned) [Example 65-H, (trans)-1-(2-(3,5-dimethyl-1H-indazol-4-yl)-6-(5-isopropyl-2-methylphenyl)-5,6,7,8-tetrahydropyrido[4,3-d]pyrimidin-4-yl)-4-methoxy-N,N-dimethylpyrrolidin-3-amine] |
| 4 | 25 | CO[C@@H]1CN(c2nc(-c3c(C)ccc4[nH]nc(C)c34)nc3c2CN(c2c(Cl)c(C4CC4)nn2C)CC3)[C@H]1C (racemic) [Example 69-I, 6-(4-chloro-3-cyclopropyl-1-methyl-1H-pyrazol-5-yl)-2-(3,5-dimethyl-1H-indazol-4-yl)-4-((trans)-methoxy-2-methylazetidin-1-yl)-5,6,7,8-tetrahydropyrido[4,3-d]pyrimidine] |
| 1 | 15 | CO[C@@H]1CCN(c2nc(-c3c(C)ccc4[nH]nc(C)c34)nc3c2CN(c2c(Cl)c(C4CC4)nn2C)CC3)[C@H](C)C1 [Example 55-M, 6-(4-chloro-3-cyclopropyl-1-methyl-1H-pyrazol-5-yl)-2-(3,5-dimethyl-1H-indazol-4-yl)-4-((2R,4R)-4-methoxy-2-methylpiperidin-1-yl)-5,6,7,8-tetrahydropyrido[4,3-d]pyrimidine] |
| 1 | 8 | CO[C@@H]1CCN(c2nc(-c3c(C)ccc4[nH]nc(C)c34)nc3c2CN(c2cc(C(C)C)ccc2C)CC3)CC1(C)C [Example 21-AI, (R)-2-(3,5-dimethyl-1H-indazol-4-yl)-6-(5-isopropyl-2-methylphenyl)-4-(4-methoxy-3,3-dimethylpiperidin-1-yl)-5,6,7,8-tetrahydropyrido[4,3-d]pyrimidine] |
